Laboratory results from US20100280098A1, “RECEPTOR TARGETED OLIGONUCLEOTIDES” (priority 2007, published 2010).
“Also recorded” adds a separate entry of the source.

Columns and labels:
αvβ3 = experiment: Cell surface αvβ3 level by immunostaining and flow cytometry; type: cell-based, human; settings: 200 nM, 24 h exposure
Experimental: Then, αvβ3 levels were determined by immunostaining with anti-αvβ3 antibody. […] The y axis of each panel indicates the number of cells, while the x axis indicates the log of fluorescence intensity.
(§1) Cell Uptake, Confocal Fluorescence Microscopy, and Flow Cytometry: Total cellular uptake of Tamra-labeled oligonucleotides was monitored using a Nanodrop microfluorimeter (Nanodrop Technologies, Wilmington, Del., United States of America). After treatment with oligonucleotides the cells were lysed in a mild non-ionic detergent buffer and the Tamra fluorescence (emission 583 nm) was quantitated based on a linear standard curve of unconjugated Tamra in buffer. Intracellular distribution of Tamra-labeled oligonucleotides was examined using an Olympus Confocal FV300 fluorescent microscope (Olympus America Inc., Center Valley, Pa., United States of America) with 60X-oil immersion objective, as previously described. See Astriab-Fisher et al. (2004) Biochem. Pharmacol., 68, 403-407. Expression levels of αvβ3 were monitored by immunostaining with an anti-human-αvβ3 monoclonal (Chemicon, Temecula, Calif., United States of America) followed by an Alexa 488 rabbit antimouse secondary antibody, with analysis by flow cytometry using a DakoCytomation (Glostrop, Denmark) machine.

Micrococcal nuclease = Micrococcal nuclease (Staphylococcus aureus, UniProt P00644); experiment: Nuclease stability by polyacrylamide gel; type: in vitro ADME; settings: 0-12 h, 37° C.
Experimental: The reactions were then stopped by the addition of EDTA (50 mM), and the fluorescent samples were analyzed on 10% polyacrylamide gels and examined under long-wavelength ultraviolet illumination to detect possible nucleolytic cleavage of the Tamra-labeled oligonucleotides.

A375SM-Luc705-B cells [1] = experiment: Subcellular distribution and co-localization by confocal fluorescence microscopy (peptide conjugate); type: cell-based; settings: living cells; 200 nM, complex 100 nM
Excerpt: as §1

A375SM-Luc705-B cells [2] = experiment: Short-term toxicity, viable cell count after 48 h (peptide conjugate); type: cell-based; settings: concentrations up to 1000 nM, 48 h
Experimental: Toxicity Studies: Cells were treated with various concentrations of oligonucleotides or conjugates under the same conditions as used for the luciferase induction experiments. After 48 h in medium plus 1% FBS, cells were trypsinized and viable cells were counted in an electronic particle counter.

A375SM-Luc705-B cells [3] = experiment: Confocal microscopy of live cells, albumin conjugates; type: cell-based; settings: 100 nM, 24 h
Experimental: Cellular Uptake and Confocal Microscopy: Cells were seeded onto either 12 well plates at 1×10^5 cells per well for cellular uptake measurements or in 12 well glass-bottom plates at 2×10^4 cells per well for live cell analysis by confocal microscopy. After treatment of cells with Tamra labeled oligonucleotide derivatives for 24 h, the cells were either lysed for measurement of Tamra fluorescence using a Nanodrop microfluorimeter (Nanodrop Technologies, Wilmington, Deleware, United States of America) or washed with DMEM containing 10% FBS and then placed in DMEM without phenol red, supplemented with 1% FBS, for confocal microscopy analysis. Co-localization of Tamra-labeled oligonucleotides with Alexa 488 labeled Transferrin or Dextran (Molecular Probes, Beaverton, Oreg., United States of America) in live cell was also examined by confocal microscopy. An Olympus confocal microscope with a 60× objective lens was used, and the data were processed using Fluoview software (Olympus, Center Valley, Pa., United States of America) as described in Example 1.

In the case of “5′-GTTATTCTTTAGAATGGTGC-Tamra-3′ [623-Tamra]”, the “level of surface αvβ3 expression” value (αvβ3) is reported as “no effect”, the “stability to micrococcal nuclease” value (Micrococcal nuclease) is reported as “gradual degradation” and the “cellular uptake seen by confocal microscopy” value (A375SM-Luc705-B cells [1]) is reported as “relatively little uptake was observed; also recorded: Very little fluorescence related to cellular uptake of Tamra was observed”. The “short-term toxicity (viable cells)” value (A375SM-Luc705-B cells [2]) was “little effect”, the “intracellular Tamra fluorescence” value (A375SM-Luc705-B cells [3]) was “less intracellular fluorescene” and the “nuclear accumulation of Tamra fluorescence” value (A375SM-Luc705-B cells [3]) was “No Tamra fluorophore appeared to have accumulated in nuclei”. For the same substance, the “nuclear accumulation of Tamra fluorescence” value (A375SM-Luc705-B cells [3]; listed as 623 Tamra) was “no evidence of nuclear accumulation”.
